Laboratory results taken from patent publication US10131663B2, “Chemical compounds” (AstraZeneca AB, priority 2016, dated 2018).
Values after ≈ are worked out from the molar mass of the structure shown.

Columns and labels:
[1] = Thermodynamic solubility (shake-flask); assay type: physicochemical; settings: aqueous phosphate buffer pH 7.4, 24 hours
Procedure: The thermodynamic solubility of a research compound is measured under standard conditions. It is a shake-flask approach that uses 10 mM DMSO solutions which are supplied from the Compound Managements liquid store and is a high throughput method. The dried compounds are equilibrated in an aqueous phosphate buffer (pH 7.4) for 24 hours at 25° C., the portion with the dissolved compound is then separated from the remains. The solutions are analyzed and quantified using UPLC/MS/MS, QC-samples are incorporated in each assay-run to ensure the quality of the assay.

[2] = target: Estrogen Receptor (ERα) in MCF-7 cells (Homo sapiens (Human), UniProt P03372); experiment: MCF-7 ER down-regulation assay (immuno-fluorescence); assay type: cell-based
Procedure: The Echo uses acoustic technology to perform direct microplate-to-microplate transfers of DMSO compound solutions to assay plates. […] Cells were fixed at room temperature for 20 mins before being washed two times with 250 μL PBS/Proclin (PBS with a Biocide preservative) using a BioTek platewasher, 40 μL of PBS/Proclin was then added to all wells and the plates stored at 4° C. The fixing method described above was carried out on the Integrated Echo 2 workcell. Immunostaining was performed using an automated AutoElisa workcell. […] The plates were incubated overnight at 4° C. […] The mean total intensity was normalized for cell number giving the total intensity per cell. The data was exported into a suitable software package (such as Origin) to perform curve fitting analysis.

[3] = Human plasma protein binding (equilibrium dialysis); assay type: in vitro ADME; settings: dialysis 18 hours
Procedure: The automated equilibrium dialysis assay in human plasma uses the RED (Rapid Equilibrium Dialysis) Device and sample handling. The assay generally runs over two to three days including delivery of results. After dialysis for 18 hours, plasma and buffer samples are prepared for analysis by liquid chromatography and mass spectrometry. Samples are generally tested in singlicates and quantified by LC/MSMS by using a 7-point calibration curve in plasma. The compounds are pooled together in plasma pools up to 10 compounds. Three reference compounds are used in each run, Propranolol, Metoprolol and Warfarin. Warfarin is used as a control in each pool and Propranolol and Metoprolol are placed randomly in each run. An in-house Excel macro is used for preparation of files for the robot and the mass spectrometer and is also used for the calculations of fraction unbound (fu %) in plasma.

[4] = target: recombinant human Estrogen Receptor alpha ligand binding domain (ER alpha-LBD (GST)) (Homo sapiens (Human), UniProt P03372); experiment: ERα binding assay (LanthaScreen TR-FRET competition); settings: TR-FRET, displacement of Fluormone ES2
Procedure: The ability of compounds to bind to isolated Estrogen Receptor Alpha Ligand binding domain (ER alpha-LBD (GST)) was assessed in competition assays using a LanthaScreen™ Time-Resolved Fluorescence Resonance Energy Transfer (TR-FRET) detection end-point. […] The assay principle is that ER alpha-LBD (GST) is added to a fluorescent ligand to form a receptor/fluorophore complex. A terbium-labelled anti-GST antibody (Product code PV3551) is used to indirectly label the receptor by binding to its GST tag, and competitive binding is detected by a test compound's ability to displace the fluorescent ligand, resulting in a loss of TR-FRET signal between the Tb-anti-GST antibody and the tracer. The assay was performed as follows with all reagent additions carried out using the Beckman Coulter BioRAPTR FRD microfluidic workstation: • 1. Acoustic dispense 120 nL of the test compound into a black low volume 384 well assay plates. • 2. Prepare 1×ER alpha-LBD/Tb-antiGST Ab in ES2 screening buffer and incubate for 15 minutes. • 3. Dispense 6 μL of the 1×[…]/Tb-anti-GST Ab reagent into each well of the assay plate followed by 6 μL of Fluorophore reagent into each well of the assay plate • 4. Cover the assay plate to protect the reagents from light and evaporation, and incubate at room temperature for 4 hours. • 5.
TR-FRET dose response data obtained with each compound was exported into a suitable software package (such as Origin or Genedata) to perform curve fitting analysis. Competitive ER alpha binding was expressed as an IC50 value.

[5] = log D (shake flask, 1-octanol/aqueous buffer); assay type: physicochemical
From the text: The lipophilicity of a drug is an important physical property which may influence many biological and metabolic properties of a compound, for example the absorption, distribution, metabolism, excretion and toxicity profiles of a compound. The distribution coefficient between 1-octanol and aqueous buffer, Log DO/W, at pH 7.4, is the most commonly used measurement of the lipophilicity of a compound. The current method for measurement of Log DO/W is based on the traditional shake flask technique, but with the modification of measuring compounds in mixtures of ten at a time using UPLC with quantitative mass spectrometry (MS) as a method to measure the relative octanol and aqueous concentrations. […] An additional QC sample Caffeine, with low Log D, are used and randomly placed in all runs. The method has been thoroughly validated against the previous shake flask methodologies.

[6] = aqueous phosphate buffer, 25 °C, pH 7.4, aqueous buffer, thermodynamic from solid
[7] = 1-octanol/aqueous buffer, pH 7.4, pH 7.4, 1-octanol/aqueous buffer
[8] = pH 7.4, 1-octanol/aqueous buffer

Sequence of recombinant human Estrogen Receptor alpha ligand binding domain (ER alpha-LBD (GST)) (P03372 307-554): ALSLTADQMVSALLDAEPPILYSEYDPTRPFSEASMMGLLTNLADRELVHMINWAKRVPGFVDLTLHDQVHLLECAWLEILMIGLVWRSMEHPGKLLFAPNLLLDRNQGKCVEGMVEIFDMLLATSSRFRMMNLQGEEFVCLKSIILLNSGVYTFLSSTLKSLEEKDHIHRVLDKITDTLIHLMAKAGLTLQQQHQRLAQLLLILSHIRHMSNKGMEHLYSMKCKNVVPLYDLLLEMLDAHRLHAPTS
Sequence of Estrogen Receptor (ERα) in MCF-7 cells (P03372 whole entry): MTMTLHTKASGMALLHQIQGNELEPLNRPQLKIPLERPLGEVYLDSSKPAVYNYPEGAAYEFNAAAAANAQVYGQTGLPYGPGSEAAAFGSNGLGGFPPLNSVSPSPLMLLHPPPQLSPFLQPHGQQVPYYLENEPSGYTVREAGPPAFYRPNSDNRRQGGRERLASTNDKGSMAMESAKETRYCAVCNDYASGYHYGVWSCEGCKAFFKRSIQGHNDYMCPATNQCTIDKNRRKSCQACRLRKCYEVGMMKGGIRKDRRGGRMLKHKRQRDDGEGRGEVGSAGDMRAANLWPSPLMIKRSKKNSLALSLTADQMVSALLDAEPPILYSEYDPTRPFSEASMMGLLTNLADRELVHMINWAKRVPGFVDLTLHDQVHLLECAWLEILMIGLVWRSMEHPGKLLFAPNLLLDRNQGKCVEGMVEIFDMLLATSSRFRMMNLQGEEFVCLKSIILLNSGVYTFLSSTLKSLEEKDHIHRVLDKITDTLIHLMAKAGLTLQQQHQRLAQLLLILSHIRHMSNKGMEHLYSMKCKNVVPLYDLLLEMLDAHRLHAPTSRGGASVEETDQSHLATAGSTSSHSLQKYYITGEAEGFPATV

Structure (SMILES) | solubility at 24 h [1, 6] | Human plasma protein binding (% free) [3] | logD [5, 7] | other results
CCOc1cc(NC2CN(CCCF)C2)ccc1[C@@H]1c2ccc3[nH]ncc3c2C[C@@H](C)N1CC1(F)CC1 [Example 20, N-(3-ethoxy-4-((6S,8R)-7-((1-fluorocyclopropyl)methyl)-8-methyl-6,7,8,9-tetrahydro-3H-pyrazolo[4,3-f]isoquinolin-6-yl)phenyl)-1-(3-fluoropropyl)azetidin-3-amine] | 730 µM (≈ 372 µg/mL) | 29 % free | 2.8 | IC50 [2]: 0.36 nM; IC50 [4]: 15 nM
COc1cc(NC2CN(CCCF)C2)ccc1[C@@H]1c2ccc3[nH]ncc3c2C[C@@H](C)N1CC(C)F (single isomer, unassigned) [Example 68] |  | 37 % free |  | solubility at 24 h ([1]; 25° C.): 561 µM (≈ 271 µg/mL); LogD pH 7.4 [5, 8]: 2.4
COc1cc(NC2CN(CCCF)C2)ccc1[C@@H]1c2ccc3[nH]ncc3c2C[C@@H](C)N1CC(C)F (single isomer, unassigned) [Example 67] | 914 µM (≈ 442 µg/mL) | 19 % free | 2.7 | 
C[C@@H]1Cc2c(ccc3[nH]ncc23)[C@@H](c2ccc(NC3CN(CCCF)C3)nc2)N1CC1(F)CC1 [Example 54, 5-((6S,8R)-7-((1-fluorocyclopropyl)methyl)-8-methyl-6,7,8,9-tetrahydro-3H-pyrazolo[4,3-f]isoquinolin-6-yl)-N-(1-(3-fluoropropyl)azetidin-3-yl)pyridin-2-amine] | > 1000 µM | 57 % free | 1.4 | 
COC[C@](C)(F)CN1[C@H](c2ccc(OC3CN(CCCF)C3)cc2OC)c2ccc3[nH]ncc3c2C[C@H]1C (single isomer, unassigned) [Example 13] |  | 6.4 % free |  | solubility at 24 h ([1]; 25° C.): 78 µM (≈ 41.2 µg/mL); LogD pH 7.4 [5, 8]: 4
COc1cc(NC2CN(CCCF)C2)cnc1[C@@H]1c2ccc3[nH]ncc3c2C[C@@H](C)N1CC(F)(F)F [Example 37, N-(1-(3-fluoropropyl)azetidin-3-yl)-5-methoxy-6-((6S,8R)-8-methyl-7-(2,2,2-trifluoroethyl)-6,7,8,9-tetrahydro-3H-pyrazolo[4,3-f]isoquinolin-6-yl)pyridin-3-amine] | 961 µM (≈ 487 µg/mL) | 25 % free | 2.6 | 
CC(F)CN1[C@H](c2ccc(NC3CN(CCCF)C3)cn2)c2ccc3[nH]ncc3c2C[C@H]1C (single isomer, unassigned) [Example 66] |  |  |  | solubility at 24 h ([1]; 25° C.): 931 µM (≈ 423 µg/mL); LogD pH 7.4 [5, 8]: 2.3
COCC(C)(F)CN1[C@H](c2ccc(NC3CN(CCCF)C3)cc2OC)c2ccc3[nH]ncc3c2C[C@H]1C (stereo partly drawn) [Example 4, N-(4-((6S,8R)-7-(2-fluoro-3-methoxy-2-methylpropyl)-8-methyl-6,7,8,9-tetrahydro-3H-pyrazolo[4,3-f]isoquinolin-6-yl)-3-methoxyphenyl)-1-(3-fluoropropyl)azetidin-3-amine] | 991 µM (≈ 523 µg/mL) | 21 % free | 2.7 | 
C[C@@H]1Cc2c(ccc3[nH]ncc23)[C@@H](c2c(F)cc(NC3CN(CCCF)C3)cc2F)N1CC(C)(F)CO (single isomer, unassigned) [Example 24] |  |  |  | DC50 ([2]; read-out: ER down regulation IC50 value): 0.21 nM; IC50 [4]: 10 nM
CC(F)CN1[C@H](c2ccc(NC3CN(CCCF)C3)cn2)c2ccc3[nH]ncc3c2C[C@H]1C (single isomer, unassigned) [Example 65] | 790 µM (≈ 359 µg/mL) |  | 2.4 | 
COC[C@](C)(F)CN1[C@H](c2ccc(NC3CN(CCCF)C3)cc2OC)c2ccc3[nH]ncc3c2C[C@H]1C (single isomer, unassigned) [Example 14] | 897 µM (≈ 473 µg/mL) | 16 % free | 2.6 | 
COC[C@](C)(F)CN1[C@H](c2ccc(NC3CN(CCCF)C3)cc2OC)c2ccc3[nH]ncc3c2C[C@H]1C (single isomer, unassigned) [Example 15] |  | 34 % free |  | solubility at 24 h ([1]; 25° C.): 821 µM (≈ 433 µg/mL); LogD pH 7.4 [5, 8]: 2.5
C[C@@H]1Cc2c(ccc3[nH]ncc23)[C@@H](c2ncc(NC3CN(CCCF)C3)cc2F)N1CC(F)(F)CF [Example 71, 5-fluoro-N-(1-(3-fluoropropyl)azetidin-3-yl)-6-((6S,8R)-8-methyl-7-(2,2,3-trifluoropropyl)-6,7,8,9-tetrahydro-3H-pyrazolo[4,3-f]isoquinolin-6-yl)pyridin-3-amine] | 666 µM (≈ 339 µg/mL) |  |  | logD [5, 8]: 3.2
CC1(C)Cc2c(ccc3[nH]ncc23)[C@@H](c2ccc(NC3CN(CCCF)C3)cn2)N1CC(F)(F)F [Example 72, (S)-6-(8,8-dimethyl-7-(2,2,2-trifluoroethyl)-6,7,8,9-tetrahydro-3H-pyrazolo[4,3-f]isoquinolin-6-yl)-N-(1-(3-fluoropropyl)azetidin-3-yl)pyridin-3-amine] | 738 µM (≈ 362 µg/mL) | 14 % free |  | logD [5, 8]: 3.3
C[C@@H]1Cc2c(ccc3[nH]ncc23)[C@@H](c2ccc(NC3CN(CCCF)C3)cn2)N1CC(C)(C)F [Example 63, 6-((6S,8R)-7-(2-fluoro-2-methylpropyl)-8-methyl-6,7,8,9-tetrahydro-3H-pyrazolo[4,3-f]isoquinolin-6-yl)-N-(1-(3-fluoropropyl)azetidin-3-yl)pyridin-3-amine] | 870 µM (≈ 408 µg/mL) | 10 % free |  | logD [5, 8]: 3.2
C[C@@H]1Cc2c(ccc3[nH]ncc23)[C@@H](c2ccc(NC3CN(CCCF)C3)cn2)N1CC(C)(F)F [Example 70, 6-((6S,8R)-7-(2,2-difluoropropyl)-8-methyl-6,7,8,9-tetrahydro-3H-pyrazolo[4,3-f]isoquinolin-6-yl)-N-(1-(3-fluoropropyl)azetidin-3-yl)pyridin-3-amine] | 857 µM (≈ 405 µg/mL) | 24 % free |  | logD [5, 8]: 2.9
C[C@@H]1Cc2c(ccc3[nH]ncc23)[C@@H](c2ccc(N(C)C3CN(CCCF)C3)cn2)N1CC(F)F [Example 43, 6-((6S,8R)-7-(2,2-difluoroethyl)-8-methyl-6,7,8,9-tetrahydro-3H-pyrazolo[4,3-f]isoquinolin-6-yl)-N-(1-(3-fluoropropyl)azetidin-3-yl)-N-methylpyridin-3-amine] |  |  |  | IC50 [2]: 0.25 nM; IC50 [4]: 4.1 nM
COC[C@](C)(F)CN1[C@H](c2ccc(OC3CN(CCCF)C3)cc2OC)c2ccc3[nH]ncc3c2C[C@H]1C (single isomer, unassigned) [Example 12] | 77 µM (≈ 40.7 µg/mL) | 2.7 % free | 3.9 | 
FCCCN1CC(Nc2ccc([C@@H]3c4ccc5[nH]ncc5c4C[C@@H](C(F)F)N3CC(F)F)nc2)C1 [Example 51, 6-((6S,8S)-7-(2,2-difluoroethyl)-8-(difluoromethyl)-6,7,8,9-tetrahydro-3H-pyrazolo[4,3-f]isoquinolin-6-yl)-N-(1-(3-fluoropropyl)azetidin-3-yl)pyridin-3-amine] | > 1000 µM | 28 % free |  | logD [5, 8]: 2.7
